Test results published in patent US11180504B2 (ORCHID PHARMA LTD., priority 2016, dated 2021).
In brackets after ≈: the same amount, converted by molar mass.

Assays:
[1] = test system: carbapenem sensitive Pseudomonas aeruginosa; experiment: MIC by broth micro-dilution (CLSI), carbapenem sensitive P. aeruginosa; assay type: cell-based; conditions: Pseudomonas aeruginosa, ATCC27853, Meropenem susceptible P. aeruginosa ATCC27853; read-out: MIC
[2] = test system: methicillin-sensitive Staphylococcus aureus; experiment: MIC by broth micro-dilution (CLSI), methicillin-sensitive S. aureus; assay type: cell-based; conditions: Staphylococcus aureus, ATCC 29213 / MSSA, MSSA S. aureus ATCC29213; read-out: MIC
[3] = test system: carbapenemase producing K. pneumoniae; experiment: MIC by broth micro-dilution (CLSI), carbapenemase producing K. pneumoniae; assay type: cell-based, Klebsiella pneumoniae; conditions: Klebsiella pneumoniae, ATCCBAA1705, KPC-2 K. pneumoniae ATCC BAA-1705; read-out: MIC
[4] = test system: extended spectrum β lactamase (ESBL) SHV18 producing Klebsiella pneumoniae; experiment: MIC by broth micro-dilution (CLSI), ESBL SHV18 producing K. pneumoniae; assay type: cell-based; conditions: Klebsiella pneumoniae, ATCC700603, 22 h, ESBL +ve (SHV-18) K. pneumoniae ATCC700603; read-out: MIC
[5] = test system: carbapenem sensitive Escherichia coli; experiment: MIC by broth micro-dilution (CLSI), carbapenem sensitive E. coli; assay type: cell-based; conditions: Escherichia coli, ATCC25922, ESBL −ve E. coli ATCC25922; read-out: MIC

Structure (SMILES)	MIC [1]	MIC [2]	MIC [3]	MIC [4]	MIC [5]
CN[C@@H]1CCN(C(=O)[C@@H]2C[C@H](SC3=C(C(=O)O)N4C(=O)[C@H]([C@@H](C)NC(=O)C(F)F)[C@H]4[C@H]3C)CN2)C1 [Example 149]	4 µg/mL (≈ 7.76 µM)	2 µg/mL (≈ 3.88 µM)	8 µg/mL (≈ 15.5 µM)	8 µg/mL (≈ 15.5 µM)	1 µg/mL (≈ 1.94 µM)
C[C@@H](NC(=O)C(F)F)[C@H]1C(=O)N2C(C(=O)O)=C(S[C@@H]3CN[C@H](CN4CC[C@H](N)C4)C3)[C@H](C)[C@H]12 [Example 150]	64 µg/mL (≈ 131 µM)	4 µg/mL (≈ 8.2 µM)	16 µg/mL (≈ 32.8 µM)	64 µg/mL (≈ 131 µM)	4 µg/mL (≈ 8.2 µM)
CNCC(=O)NO[C@H]1CCN(C(=O)[C@@H]2C[C@H](SC3=C(C(=O)O)N4C(=O)[C@H]([C@@H](C)NC(=O)C(F)F)[C@H]4[C@H]3C)CN2)C1 [Example 151]	32 µg/mL (≈ 54.4 µM)	4 µg/mL (≈ 6.8 µM)	8 µg/mL (≈ 13.6 µM)	16 µg/mL (≈ 27.2 µM)	2 µg/mL (≈ 3.4 µM)
C[C@@H](NC(=O)C(F)F)[C@H]1C(=O)N2C(C(=O)O)=C(S[C@@H]3CN[C@H](C(=O)N4CC[C@H](NCC(N)=O)C4)C3)[C@H](C)[C@H]12 [Example 153]	64 µg/mL (≈ 115 µM)	8 µg/mL (≈ 14.3 µM)	8 µg/mL (≈ 14.3 µM)	2 µg/mL (≈ 3.58 µM)	1 µg/mL (≈ 1.79 µM)
C[C@@H](NC(=O)C(F)F)[C@H]1C(=O)N2C(C(=O)O)=C(S[C@@H]3CN[C@H](C(=O)N4CC[C@@H](NCC(N)=O)C4)C3)[C@H](C)[C@H]12 [Example 154]	64 µg/mL (≈ 115 µM)	4 µg/mL (≈ 7.16 µM)	8 µg/mL (≈ 14.3 µM)	2 µg/mL (≈ 3.58 µM)	1 µg/mL (≈ 1.79 µM)
CNCC(=O)N[C@@H]1CCN(C(=O)[C@@H]2C[C@H](SC3=C(C(=O)O)N4C(=O)[C@H]([C@@H](C)NC(=O)C(F)F)[C@H]4[C@H]3C)CN2)C1 [Example 155]	32 µg/mL (≈ 55.9 µM)	2 µg/mL (≈ 3.49 µM)	8 µg/mL (≈ 14 µM)	8 µg/mL (≈ 14 µM)	1 µg/mL (≈ 1.75 µM)
C[C@@H](NC(=O)C(F)F)[C@H]1C(=O)N2C(C(=O)O)=C(S[C@@H]3CN[C@H](C(=O)N4CCN(C(=N)N)CC4)C3)[C@H](C)[C@H]12 [Example 157]	4 µg/mL (≈ 7.36 µM)	2 µg/mL (≈ 3.68 µM)	4 µg/mL (≈ 7.36 µM)	8 µg/mL (≈ 14.7 µM)	1 µg/mL (≈ 1.84 µM)
CNCC(=O)N1CCN(C(=O)[C@@H]2C[C@H](SC3=C(C(=O)O)N4C(=O)[C@H]([C@@H](C)NC(=O)C(F)F)[C@H]4[C@H]3C)CN2)CC1 [Example 158]	8 µg/mL (≈ 14 µM)	2 µg/mL (≈ 3.49 µM)	4 µg/mL (≈ 6.99 µM)	4 µg/mL (≈ 6.99 µM)	1 µg/mL (≈ 1.75 µM)
C[C@@H](NC(=O)C(F)F)[C@H]1C(=O)N2C(C(=O)O)=C(S[C@@H]3CN[C@H](C(=O)N4CCN(C(=O)CN)CC4)C3)[C@H](C)[C@H]12 [Example 159]	8 µg/mL (≈ 14.3 µM)	2 µg/mL (≈ 3.58 µM)	4 µg/mL (≈ 7.16 µM)	4 µg/mL (≈ 7.16 µM)	1 µg/mL (≈ 1.79 µM)
C[C@@H](NC(=O)C(F)F)[C@H]1C(=O)N2C(C(=O)O)=C(S[C@@H]3CN[C@H](C(=O)N4CC[C@@H](NC(=O)CN)C4)C3)[C@H](C)[C@H]12 [Example 160]	16 µg/mL (≈ 28.6 µM)	4 µg/mL (≈ 7.16 µM)	8 µg/mL (≈ 14.3 µM)	8 µg/mL (≈ 14.3 µM)	1 µg/mL (≈ 1.79 µM)
C[C@@H](NC(=O)C(F)F)[C@H]1C(=O)N2C(C(=O)O)=C(S[C@@H]3CN[C@H](C(=O)N4CCNC[C@@H]4C)C3)[C@H](C)[C@H]12 [Example 161]	8 µg/mL (≈ 15.5 µM)	0.5 µg/mL (≈ 0.97 µM)	4 µg/mL (≈ 7.76 µM)	8 µg/mL (≈ 15.5 µM)	0.5 µg/mL (≈ 0.97 µM)
C[C@@H](NC(=O)C(F)F)[C@H]1C(=O)N2C(C(=O)O)=C(S[C@@H]3CN[C@H](C(=O)N4CCCNCC4)C3)[C@H](C)[C@H]12 [Example 162]	16 µg/mL (≈ 31 µM)	1 µg/mL (≈ 1.94 µM)	4 µg/mL (≈ 7.76 µM)	4 µg/mL (≈ 7.76 µM)	0.5 µg/mL (≈ 0.97 µM)
CNCCN(C)C(=O)[C@@H]1C[C@H](SC2=C(C(=O)O)N3C(=O)[C@H]([C@@H](C)NC(=O)C(F)F)[C@H]3[C@H]2C)CN1 [Example 163]	8 µg/mL (≈ 15.9 µM)	1 µg/mL (≈ 1.99 µM)	4 µg/mL (≈ 7.94 µM)	4 µg/mL (≈ 7.94 µM)	1 µg/mL (≈ 1.99 µM)
C[C@@H](NC(=O)C(F)F)[C@H]1C(=O)N2C(C(=O)O)=C(S[C@@H]3CN[C@H](C(=O)N4CC[C@@H](ON)C4)C3)[C@H](C)[C@H]12 [Example 164]	32 µg/mL (≈ 61.8 µM)	1 µg/mL (≈ 1.93 µM)	4 µg/mL (≈ 7.73 µM)	1 µg/mL (≈ 1.93 µM)	0.25 µg/mL (≈ 0.483 µM)
C[C@@H](NC(=O)CCN)[C@H]1C(=O)N2C(C(=O)O)=C(S[C@@H]3CN[C@H](C(=O)N(C)C)C3)[C@H](C)[C@H]12 [Example 165]	32 µg/mL (≈ 70.6 µM)	64 µg/mL (≈ 141 µM)	2 µg/mL (≈ 4.41 µM)	4 µg/mL (≈ 8.82 µM)	2 µg/mL (≈ 4.41 µM)
CNCCC(=O)N[C@H](C)[C@H]1C(=O)N2C(C(=O)O)=C(S[C@@H]3CN[C@H](C(=O)N(C)C)C3)[C@H](C)[C@H]12 [Example 166]	32 µg/mL (≈ 68.4 µM)	64 µg/mL (≈ 137 µM)	8 µg/mL (≈ 17.1 µM)	8 µg/mL (≈ 17.1 µM)	4 µg/mL (≈ 8.55 µM)

Structure (SMILES)	MIC [1]	MIC [2]	MIC [3]	MIC [4]	MIC [5]
C[C@H]([C@H]1C(=O)N2C(C(=O)O)=C(SC3CN[C@H](C(=O)N4CC[C@@H](N)C4)C3)[C@H](C)[C@H]12)n1cc(CO)nn1 (some centres unmarked) [Example 167]	32 µg/mL (≈ 63.3 µM)	2 µg/mL (≈ 3.96 µM)	4 µg/mL (≈ 7.91 µM)	4 µg/mL (≈ 7.91 µM)	4 µg/mL (≈ 7.91 µM)
CNCC(=O)N[C@H](C)[C@H]1C(=O)N2C(C(=O)O)=C(S[C@@H]3CN[C@H](C(=O)N4CCNCC4)C3)[C@H](C)[C@H]12 [Example 168]	2 µg/mL (≈ 4.04 µM)	16 µg/mL (≈ 32.3 µM)	2 µg/mL (≈ 4.04 µM)	2 µg/mL (≈ 4.04 µM)	1 µg/mL (≈ 2.02 µM)
CNCC(=O)N[C@H](C)[C@H]1C(=O)N2C(C(=O)O)=C(S[C@@H]3CN[C@H](CNS(N)(=O)=O)C3)[C@H](C)[C@H]12 [Example 169]	4 µg/mL (≈ 8.15 µM)	8 µg/mL (≈ 16.3 µM)	2 µg/mL (≈ 4.08 µM)	16 µg/mL (≈ 32.6 µM)	1 µg/mL (≈ 2.04 µM)
C[C@@H](NC(=O)C(F)F)[C@H]1C(=O)N2C(C(=O)O)=C(S[C@@H]3CN[C@H](C(=O)N4CC[C@H](NC5CC5)C4)C3)[C@H](C)[C@H]12 [Example 170]	32 µg/mL (≈ 59.1 µM)	2 µg/mL (≈ 3.69 µM)	8 µg/mL (≈ 14.8 µM)	4 µg/mL (≈ 7.39 µM)	1 µg/mL (≈ 1.85 µM)
CNCCN(CC#N)C(=O)[C@@H]1C[C@H](SC2=C(C(=O)O)N3C(=O)[C@H]([C@@H](C)NC(=O)C(F)F)[C@H]3[C@H]2C)CN1 [Example 171]	> 128 µg/mL	2 µg/mL (≈ 3.78 µM)	128 µg/mL (≈ 242 µM)	128 µg/mL (≈ 242 µM)	4 µg/mL (≈ 7.57 µM)
C[C@@H](NC(=O)C(F)F)[C@H]1C(=O)N2C(C(=O)O)=C(S[C@@H]3CN[C@H](C(=O)N(C)[C@@H]4CN[C@H](C(=O)N(C)C)C4)C3)[C@H](C)[C@H]12 [Example 172]	64 µg/mL (≈ 109 µM)	4 µg/mL (≈ 6.82 µM)	8 µg/mL (≈ 13.6 µM)	8 µg/mL (≈ 13.6 µM)	1 µg/mL (≈ 1.7 µM)
C[C@@H](NC(=O)C(F)F)[C@H]1C(=O)N2C(C(=O)O)=C(S[C@@H]3CN[C@H](C(=O)N(C)CCC(=O)N4CC[C@H](N)C4)C3)[C@H](C)[C@H]12 [Example 173]	16 µg/mL (≈ 27.3 µM)	4 µg/mL (≈ 6.82 µM)	8 µg/mL (≈ 13.6 µM)	16 µg/mL (≈ 27.3 µM)	2 µg/mL (≈ 3.41 µM)
C[C@@H](NC(=O)C(F)F)[C@H]1C(=O)N2C(C(=O)O)=C(S[C@@H]3CN[C@H](C(=O)N(C)CCC(=O)N4CCCNCC4)C3)[C@H](C)[C@H]12 [Example 174]	32 µg/mL (≈ 53.3 µM)	4 µg/mL (≈ 6.66 µM)	8 µg/mL (≈ 13.3 µM)	16 µg/mL (≈ 26.6 µM)	2 µg/mL (≈ 3.33 µM)
C[C@@H](NC(=O)C(F)F)[C@H]1C(=O)N2C(C(=O)O)=C(S[C@@H]3CN[C@H](C(=O)N4CC[C@H](NCC#N)C4)C3)[C@H](C)[C@H]12 [Example 175]	16 µg/mL (≈ 29.6 µM)	2 µg/mL (≈ 3.7 µM)	4 µg/mL (≈ 7.4 µM)	2 µg/mL (≈ 3.7 µM)	1 µg/mL (≈ 1.85 µM)
C[C@@H](NC(=O)C(F)F)[C@H]1C(=O)N2C(C(=O)O)=C(S[C@@H]3CN[C@H](C(=O)N4CC[C@H](n5cc(CN)nn5)C4)C3)[C@H](C)[C@H]12 [Example 176]	8 µg/mL (≈ 13.7 µM)	2 µg/mL (≈ 3.43 µM)	8 µg/mL (≈ 13.7 µM)	4 µg/mL (≈ 6.87 µM)	1 µg/mL (≈ 1.72 µM)
C[C@H]([C@H]1C(=O)N2C(C(=O)O)=C(SC3CN[C@H](C(=O)N(C)C)C3)[C@H](C)[C@H]12)n1cc(CN)nn1 (some centres unmarked) [Example 177]	32 µg/mL (≈ 69 µM)	8 µg/mL (≈ 17.3 µM)	2 µg/mL (≈ 4.31 µM)	2 µg/mL (≈ 4.31 µM)	2 µg/mL (≈ 4.31 µM)
CNCC(=O)N[C@H](C)[C@H]1C(=O)N2C(C(=O)O)=C(S[C@@H]3CN[C@H](C(=O)N4CC[C@H](n5cc(CN)nn5)C4)C3)[C@H](C)[C@H]12 [Example 178]	4 µg/mL (≈ 6.95 µM)	32 µg/mL (≈ 55.6 µM)	4 µg/mL (≈ 6.95 µM)	4 µg/mL (≈ 6.95 µM)	2 µg/mL (≈ 3.47 µM)
CNCC(=O)N[C@H](C)[C@H]1C(=O)N2C(C(=O)O)=C(S[C@@H]3CN[C@H](C(=O)N4CC[C@@H](NC)C4)C3)[C@H](C)[C@H]12 [Example 179]	16 µg/mL (≈ 31.5 µM)	128 µg/mL (≈ 252 µM)	8 µg/mL (≈ 15.7 µM)	16 µg/mL (≈ 31.5 µM)	2 µg/mL (≈ 3.93 µM)
C[C@@H](NC(=O)CN(C)C)[C@H]1C(=O)N2C(C(=O)O)=C(S[C@@H]3CN[C@H](C(=O)N4CC[C@@H](N)C4)C3)[C@H](C)[C@H]12 [Example 180]	16 µg/mL (≈ 31.5 µM)	128 µg/mL (≈ 252 µM)	32 µg/mL (≈ 62.9 µM)	32 µg/mL (≈ 62.9 µM)	4 µg/mL (≈ 7.86 µM)
CNCC(=O)N[C@H](C)[C@H]1C(=O)N2C(C(=O)O)=C(S[C@@H]3CN[C@H](Cn4cc(CN)nn4)C3)[C@H](C)[C@H]12 [Example 181]	128 µg/mL (≈ 260 µM)	> 128 µg/mL	64 µg/mL (≈ 130 µM)	> 128 µg/mL	8 µg/mL (≈ 16.2 µM)
